PubChem BioAssay AID2060603 (Molecular Pharmacology Branch, DTP, NCI, 2025)

Test system: 422866-222-R5-J1-PDC spheroid viability
Experiment: Anticancer human tumor 422866-222-R5-J1-PDC patient-derived pancreatic adenocarcinoma cell line growth inhibition [CLK]
Settings: spheroids with HUVEC and MSC; for IC50: curve of first compound; for viability, T/C: stronger effect = lower value
Outline: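 Patient-derived tumor cells grown as complex spheroids with HUVEC endothelial cells and mesenchymal stem cells, treated with drug combinations. Concentrations descend in half-log steps from near clinical Cmax, or from 10 microM if Cmax unknown.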

[1] = second compound 0.0316 µM, first compound 0.0316 µM
[2] = second compound 0.0316 µM, first compound 0.1 µM
[3] = second compound 0.0316 µM, first compound 0.316 µM
[4] = second compound 0.0316 µM, first compound 1 µM
[5] = second compound 0.0316 µM, first compound 3.16 µM
[6] = second compound 0.0316 µM, first compound 10 µM
[7] = second compound 0.1 µM, first compound 0.0316 µM
[8] = second compound 0.1 µM, first compound 0.1 µM
[9] = second compound 0.1 µM, first compound 0.316 µM
[10] = second compound 0.1 µM, first compound 1 µM
[11] = second compound 0.1 µM, first compound 3.16 µM
[12] = second compound 0.1 µM, first compound 10 µM
[13] = second compound 0.316 µM, first compound 0.0316 µM
[14] = second compound 0.316 µM, first compound 0.1 µM
[15] = second compound 0.316 µM, first compound 0.316 µM
[16] = second compound 0.316 µM, first compound 1 µM
[17] = second compound 0.316 µM, first compound 3.16 µM
[18] = second compound 0.316 µM, first compound 10 µM
[19] = second compound 1 µM, first compound 0.0316 µM
[20] = second compound 1 µM, first compound 0.1 µM
[21] = second compound 1 µM, first compound 0.316 µM
[22] = second compound 1 µM, first compound 1 µM
[23] = second compound 1 µM, first compound 3.16 µM
[24] = second compound 1 µM, first compound 10 µM
[25] = second compound 3.16 µM, first compound 0.0316 µM
[26] = second compound 3.16 µM, first compound 0.1 µM
[27] = second compound 3.16 µM, first compound 0.316 µM
[28] = second compound 3.16 µM, first compound 1 µM
[29] = second compound 3.16 µM, first compound 3.16 µM
[30] = second compound 3.16 µM, first compound 10 µM
[31] = second compound 10 µM, first compound 0.0316 µM
[32] = second compound 10 µM, first compound 0.1 µM
[33] = second compound 10 µM, first compound 0.316 µM
[34] = second compound 10 µM, first compound 1 µM
[35] = second compound 10 µM, first compound 3.16 µM
[36] = second compound 10 µM, first compound 10 µM
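Further: spheroids exposed to agents for seven days before readout.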

## CC1(C)CCC(CN2CCN(c3ccc(C(=O)NS(=O)(=O)c4ccc(NCC5CCOCC5)c([N+](=O)[O-])c4)c(Oc4cnc5[nH]ccc5c4)c3)CC2)=C(c2ccc(Cl)cc2)C1 + CNC(=O)c1ccc(Nc2nc(OC3CCCC3)c3c(-c4ccc5nc(C)oc5c4)c[nH]c3n2)c(OC)c1
Second compound 0.0316 µM
  IC50: > 10 µM
Second compound 0.1 µM
  IC50: > 10 µM
Second compound 0.316 µM
  IC50: > 10 µM
Second compound 1 µM
  IC50: > 10 µM
Second compound 3.16 µM
  IC50: > 10 µM
Second compound 10 µM
  IC50: > 10 µM
[1]
  viability, T/C: 115%
[2]
  viability, T/C: 87.5%
[3]
  viability, T/C: 93.9%
[4]
  viability, T/C: 119%
[5]
  viability, T/C: 131%
[6]
  viability, T/C: 93.4%
[7]
  viability, T/C: 114%
[8]
  viability, T/C: 90%
[9]
  viability, T/C: 98.7%
[10]
  viability, T/C: 100%
[11]
  viability, T/C: 114%
[12]
  viability, T/C: 81.3%
[13]
  viability, T/C: 84.6%
[14]
  viability, T/C: 71.9%
[15]
  viability, T/C: 70.1%
[16]
  viability, T/C: 75.7%
[17]
  viability, T/C: 86.6%
[18]
  viability, T/C: 78%
[19]
  viability, T/C: 75.3%
[20]
  viability, T/C: 76.4%
[21]
  viability, T/C: 76%
[22]
  viability, T/C: 70.7%
[23]
  viability, T/C: 66%
[24]
  viability, T/C: 57.1%
[25]
  viability, T/C: 65.2%
[26]
  viability, T/C: 76.6%
[27]
  viability, T/C: 66.4%
[28]
  viability, T/C: 67.7%
[29]
  viability, T/C: 76.8%
[30]
  viability, T/C: 79.5%
[31]
  viability, T/C: 60.3%
[32]
  viability, T/C: 62.4%
[33]
  viability, T/C: 61%
[34]
  viability, T/C: 56.6%
[35]
  viability, T/C: 78.1%
[36]
  viability, T/C: 84.3%

## CC(=O)O[C@H]1C(=O)[C@@]2(C)[C@H]([C@H](OC(=O)c3ccccc3)[C@]3(O)C[C@H](OC(=O)[C@H](O)[C@@H](NC(=O)c4ccccc4)c4ccccc4)C(C)=C1C3(C)C)[C@]1(OC(C)=O)CO[C@@H]1C[C@@H]2O + CNC(=O)c1ccc(Nc2nc(OC3CCCC3)c3c(-c4ccc5nc(C)oc5c4)c[nH]c3n2)c(OC)c1
Second compound 0.0316 µM
  IC50: > 10 µM
Second compound 0.1 µM
  IC50: > 10 µM
Second compound 0.316 µM
  IC50: > 10 µM
Second compound 1 µM
  IC50: 0.0316 µM
Second compound 3.16 µM
  IC50: > 10 µM
Second compound 10 µM
  IC50: > 10 µM
[1]
  viability, T/C: 68.8%
[2]
  viability, T/C: 61.1%
[3]
  viability, T/C: 65.3%
[4]
  viability, T/C: 83.3%
[5]
  viability, T/C: 102%
[6]
  viability, T/C: 100%
[7]
  viability, T/C: 61%
[8]
  viability, T/C: 67.9%
[9]
  viability, T/C: 63%
[10]
  viability, T/C: 74.8%
[11]
  viability, T/C: 78.5%
[12]
  viability, T/C: 98.1%
[13]
  viability, T/C: 59.4%
[14]
  viability, T/C: 68%
[15]
  viability, T/C: 62.2%
[16]
  viability, T/C: 61.4%
[17]
  viability, T/C: 65.5%
[18]
  viability, T/C: 78.7%
[19]
  viability, T/C: 56.5%
[20]
  viability, T/C: 48.4%
[21]
  viability, T/C: 52.8%
[22]
  viability, T/C: 48.5%
[23]
  viability, T/C: 66.5%
[24]
  viability, T/C: 73%
[25]
  viability, T/C: 56.5%
[26]
  viability, T/C: 60.8%
[27]
  viability, T/C: 52.3%
[28]
  viability, T/C: 57.9%
[29]
  viability, T/C: 70.5%
[30]
  viability, T/C: 79%
[31]
  viability, T/C: 48.9%
[32]
  viability, T/C: 60.1%
[33]
  viability, T/C: 61.4%
[34]
  viability, T/C: 53.9%
[35]
  viability, T/C: 65.4%
[36]
  viability, T/C: 70.5%

## COc1c(OCCCN2CCOCC2)ccc2c3n(c(=NC(=O)c4cnc(N)nc4)nc12)CCN3 + CN1CCN(c2cc(C(=O)Nc3cc4cc(-c5cnn(C)c5)ccc4cn3)ccn2)CC1
Second compound 0.0316 µM
  IC50: 0.022 µM
Second compound 0.1 µM
  IC50: 0.0263 µM
Second compound 0.316 µM
  IC50: 0.0226 µM
Second compound 1 µM
  IC50: < 0.00316 µM
Second compound 3.16 µM
  IC50: < 0.00316 µM
Second compound 10 µM
  IC50: < 0.00316 µM
Second compound 0.0316 µM, first compound 0.00316 µM
  viability, T/C: 99.3%
Second compound 0.0316 µM, first compound 0.01 µM
  viability, T/C: 65.7%
[1]
  viability, T/C: 43.5%
[2]
  viability, T/C: 33.2%
[3]
  viability, T/C: 28.9%
[4]
  viability, T/C: 33.4%
Second compound 0.1 µM, first compound 0.00316 µM
  viability, T/C: 92.2%
Second compound 0.1 µM, first compound 0.01 µM
  viability, T/C: 73.2%
[7]
  viability, T/C: 46.9%
[8]
  viability, T/C: 31.6%
[9]
  viability, T/C: 32.2%
[10]
  viability, T/C: 34.5%
Second compound 0.316 µM, first compound 0.00316 µM
  viability, T/C: 92.8%
Second compound 0.316 µM, first compound 0.01 µM
  viability, T/C: 63%
[13]
  viability, T/C: 46.1%
[14]
  viability, T/C: 35.5%
[15]
  viability, T/C: 30.3%
[16]
  viability, T/C: 37.6%
Second compound 1 µM, first compound 0.00316 µM
  viability, T/C: 33.7%
Second compound 1 µM, first compound 0.01 µM
  viability, T/C: 33.4%
[19]
  viability, T/C: 21.6%
[20]
  viability, T/C: 25.6%
[21]
  viability, T/C: 18%
[22]
  viability, T/C: 23.8%
Second compound 3.16 µM, first compound 0.00316 µM
  viability, T/C: 9.85%
Second compound 3.16 µM, first compound 0.01 µM
  viability, T/C: 13.6%
[25]
  viability, T/C: 11.9%
[26]
  viability, T/C: 10.2%
[27]
  viability, T/C: 10.4%
[28]
  viability, T/C: 9.8%
Second compound 10 µM, first compound 0.00316 µM
  viability, T/C: 3.74%
Second compound 10 µM, first compound 0.01 µM
  viability, T/C: 4.24%
[31]
  viability, T/C: 3.81%
[32]
  viability, T/C: 1.77%
[33]
  viability, T/C: 5.18%
[34]
  viability, T/C: 3.72%
